# Reference: patent publication US12559720B2, “Mobilization and collection of peripheral blood hematopoietic stem cells and lymphocytes from deceased donors” (The Regents of the University of California, priority 2018, dated 2026)
# Assays:
# [1] = test system: CD34+ cells mobilized from bone marrow into peripheral blood; assay: First working embodiment: single-dose plerixafor mobilization in a deceased donor, apheresis, then CD34+ isolation
# PB HSC's / CD34+ cells = details: cited from earlier work
structure (smiles),measurement,setting,value
"c1cc(CN2CCCNCCNCCCNCC2)ccc1CN1CCCNCCNCCCNCC1 [plerixafor, 1-{[4-(1,4,8,11-tetrazacyclotetradec-1-ylmethyl)phenyl]methyl}-1,4,8,11 tetrazacyclotetradecane]",% CD34+,[1]; Leukopak Product,0.87%
same,% viability,[1]; Leukopak Product,99.5%
same,TNC,[1]; Leukopak Product,1.49E+10
same,Total CD34+ (= % CD34+/100 x TNC),[1]; Leukopak Product,1.29E+08
same,TNC/mL,"[1]; Leukopak Product, single sc dose plerixafor, apheresis started 8 hours after dose, 24 liters processed",3.23E+07
same,% CD34+,[1]; Positive (CD34) fraction,95%
same,% viability,[1]; Positive (CD34) fraction,95%
same,TNC,[1]; Positive (CD34) fraction,1.22E+08
same,TNC/mL,[1]; Positive (CD34) fraction,2.60E+06
same,Total CD34+ (= % CD34+/100 x TNC),[1]; Positive (CD34) fraction,1.16E+08
same,"whole body CT scans, routine hematology and serum chemistry panels before and after the procedure","[1]; deceased donor, single dose plerixafor",remained stable
same,"tolerability of the procedure (vital signs, oxygenation, urine output)","[1]; deceased donor, single sc dose plerixafor (0.24 kg/mg), 8 hours apheresis",tolerated the procedure well
same,viable CD34+ cells isolated,[1]; first working embodiment,more than 1.0×10^8 cells
same,purity of isolated CD34+ cells,"[1]; first working embodiment, after isolation",90-95%
same,peak onset of action,PB HSC's / CD34+ cells; after administration,6 to 10 h
same,fraction of healthy donors who fail to produce desired numbers of CD34+ cells/kg,"PB HSC's / CD34+ cells; single agent, standard dose 0.24 mg/kg, subcutaneously or intravenously",⅓
same,tolerability / organ toxicity,PB HSC's / CD34+ cells; single subcutaneous dose,well tolerated with no major organ toxicity
